The results in this text go back to ChEMBL document CHEMBL5528002, “Identification of selective 5-LOX and FLAP inhibitors as novel anti-inflammatory agents by ligand-based virtual screening” (Eur J Med Chem, 2024).

The source made the active and inactive calls. The calls are words filed in the database; no cut-off is given here.

The target in assay [1] is T1, Polyunsaturated fatty acid 5-lipoxygenase (Homo sapiens, UniProt P09917).
T1 sequence (P09917 whole entry): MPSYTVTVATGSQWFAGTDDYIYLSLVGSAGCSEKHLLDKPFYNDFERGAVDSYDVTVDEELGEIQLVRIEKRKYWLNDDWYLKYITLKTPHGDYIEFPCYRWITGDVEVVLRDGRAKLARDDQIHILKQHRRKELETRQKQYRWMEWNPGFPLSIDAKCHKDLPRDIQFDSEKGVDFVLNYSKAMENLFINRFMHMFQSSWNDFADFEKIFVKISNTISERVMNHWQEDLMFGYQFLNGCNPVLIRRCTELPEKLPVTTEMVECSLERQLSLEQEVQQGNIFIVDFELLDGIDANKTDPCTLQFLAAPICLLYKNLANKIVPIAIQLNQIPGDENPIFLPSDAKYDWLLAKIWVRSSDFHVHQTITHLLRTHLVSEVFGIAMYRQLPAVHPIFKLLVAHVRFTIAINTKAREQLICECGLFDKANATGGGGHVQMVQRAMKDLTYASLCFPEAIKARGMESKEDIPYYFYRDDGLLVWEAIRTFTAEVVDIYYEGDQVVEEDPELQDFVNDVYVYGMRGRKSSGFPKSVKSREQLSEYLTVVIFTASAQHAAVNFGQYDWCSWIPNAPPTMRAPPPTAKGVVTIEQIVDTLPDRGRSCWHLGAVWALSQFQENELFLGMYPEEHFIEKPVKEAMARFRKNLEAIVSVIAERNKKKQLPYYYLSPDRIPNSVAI
As to the kind of experiment: Inhibition of human recombinant 5-LOX expressed in Escherichia coli BL21(DE3) using arachidonic acid as substrate preincubated with compound for 15 mins followed by substrate and CaCl2 addition measured after 10 mins by RP-HPLC analysis.

Assay [2] deals with T1, Polyunsaturated fatty acid 5-lipoxygenase. As to the kind of experiment: Inhibition of 5-LOX in human Neutrophil preincubated with compound for 15 mins followed by A23187 addition measured after 10 mins by RP-HPLC analysis. The format is cell-based.
For assay [3], the system named is Macrophage cell line. Put plainly: Effect on lipid mediator formation in human M1-like phenotype MDM cells by measuring 5-HEPE formation at 10 uM pre-incubated for 15 mins followed by SACM stimulation and measured after 90 mins by UPLC-MS/MS analysis (reference value: 560 +/- 160 pg/ml). Conditions: time 105 min, 1.75 h. The format is functional.
The test system of assay [4] is Macrophage cell line. As to the kind of experiment: Effect on lipid mediator formation in human M1-like phenotype MDM cells by measuring TXB2 formation at 10 uM pre-incubated for 15 mins followed by SACM stimulation and measured after 90 mins by UPLC-MS/MS analysis (reference value: 8866 +/- 2561 pg/ml). It is filed as functional. To be noted: time 105 min, 1.75 h.

Assay [5] concerns Macrophage cell line. As to the kind of experiment: Effect on lipid mediator formation in human M1-like phenotype MDM cells by measuring 4-HDHA formation at 10 uM pre-incubated for 15 mins followed by SACM stimulation and measured after 90 mins by UPLC-MS/MS analysis (reference value: 58 +/- 9 pg/ml). The format is functional. To be noted: time 105 min, 1.75 h.
The test system of assay [6] is Macrophage cell line. As to the kind of experiment: Effect on lipid mediator formation in human M1-like phenotype MDM cells by measuring 15-HEPE formation at 10 uM pre-incubated for 15 mins followed by SACM stimulation and measured after 90 mins by UPLC-MS/MS analysis (reference value: 57 +/- 10 pg/ml). It is filed as functional. Conditions: time 105 min, 1.75 h.
Assay [7] has as its system Macrophage cell line. As to the kind of experiment: Effect on lipid mediator formation in human M1-like phenotype MDM cells by measuring arachidonic acid formation at 10 uM pre-incubated for 15 mins followed by SACM stimulation and measured after 90 mins by UPLC-MS/MS analysis (reference value: 69242 +/- 58 pg/ml). It is filed as functional. Conditions: time 105 min, 1.75 h.

Assay [8] deals with Macrophage cell line. Put plainly: Effect on lipid mediator formation in human M1-like phenotype MDM cells by measuring 5S,6R-diHETE formation at 10 uM pre-incubated for 15 mins followed by SACM stimulation and measured after 90 mins by UPLC-MS/MS analysis relative to control. It is filed as functional. To be noted: time 105 min, 1.75 h.
Assay [9] concerns Macrophage cell line. Put plainly: Effect on lipid mediator formation in human M1-like phenotype MDM cells by measuring PGE2 formation at 10 uM pre-incubated for 15 mins followed by SACM stimulation and measured after 90 mins by UPLC-MS/MS analysis relative to control. It is filed as functional. To be noted: time 105 min, 1.75 h.
Assay [10] deals with Macrophage cell line. Put plainly: Effect on lipid mediator formation in human M1-like phenotype MDM cells by measuring PGF2alpha formation at 10 uM pre-incubated for 15 mins followed by SACM stimulation and measured after 90 mins by UPLC-MS/MS analysis relative to control. It is filed as functional. Conditions: time 105 min, 1.75 h.
Assay [11] has as its system Macrophage cell line. As to the kind of experiment: Effect on lipid mediator formation in human M2-like phenotype MDM cells by measuring 4-HDHA formation at 10 uM pre-incubated for 15 mins followed by SACM stimulation and measured after 90 mins by UPLC-MS/MS analysis (reference value: 58 +/- 8 pg/ml). To be noted: time 105 min, 1.75 h. The format is functional.
In assay [12] the test system is Macrophage cell line. As to the kind of experiment: Effect on lipid mediator formation in human M2-like phenotype MDM cells by measuring 12-HEPE formation at 10 uM pre-incubated for 15 mins followed by SACM stimulation and measured after 90 mins by UPLC-MS/MS analysis (reference value: 361 +/- 75 pg/ml). The format is functional. To be noted: time 105 min, 1.75 h.

Assay [13] concerns Macrophage cell line. Put plainly: Effect on lipid mediator formation in human M2-like phenotype MDM cells by measuring RvD5 formation at 10 uM pre-incubated for 15 mins followed by SACM stimulation and measured after 90 mins by UPLC-MS/MS analysis (reference value: 344 +/- 92 pg/ml). The format is functional. Conditions: time 105 min, 1.75 h.
The test system of assay [14] is Macrophage cell line. Put plainly: Effect on lipid mediator formation in human M2-like phenotype MDM cells by measuring 7-HDHA formation at 10 uM pre-incubated for 15 mins followed by SACM stimulation and measured after 90 mins by UPLC-MS/MS analysis relative to control. To be noted: time 105 min, 1.75 h. The format is functional.
The test system of assay [15] is Macrophage cell line. Put plainly: Effect on lipid mediator formation in human M2-like phenotype MDM cells by measuring RvD2 formation at 10 uM pre-incubated for 15 mins followed by SACM stimulation and measured after 90 mins by UPLC-MS/MS analysis relative to control. The format is functional. To be noted: time 105 min, 1.75 h.
The subject of assay [16] is Macrophage cell line. As to the kind of experiment: Effect on lipid mediator formation in human M2-like phenotype MDM cells by measuring arachidonic acid formation at 10 uM pre-incubated for 15 mins followed by SACM stimulation and measured after 90 mins by UPLC-MS/MS analysis relative to control. It is filed as functional. Conditions: time 105 min, 1.75 h.
In assay [17] the test system is Macrophage cell line. As to the kind of experiment: Effect on lipid mediator formation in human M2-like phenotype MDM cells by measuring EPA formation at 10 uM pre-incubated for 15 mins followed by SACM stimulation and measured after 90 mins by UPLC-MS/MS analysis relative to control. It is filed as functional. To be noted: time 105 min, 1.75 h.
The target of assay [18] is T2, Polyunsaturated fatty acid 5-lipoxygenase (Homo sapiens) (UniProt P09917).
T2 sequence (whole entry): T1 sequence (P09917 whole entry)
Put plainly: Inhibition of 5-LOX in human Neutrophil at 10 uM using arachidonic acid as substrate preincubated with compound for 15 mins followed by substrate and A23187 addition measured after 10 mins by RP-HPLC analysis relative to control. To be noted: time 25.0 min. The format is cell-based.

For assay [19], the target named is T3, Prostaglandin E synthase (Homo sapiens) (UniProt O14684).
T3 sequence (whole entry): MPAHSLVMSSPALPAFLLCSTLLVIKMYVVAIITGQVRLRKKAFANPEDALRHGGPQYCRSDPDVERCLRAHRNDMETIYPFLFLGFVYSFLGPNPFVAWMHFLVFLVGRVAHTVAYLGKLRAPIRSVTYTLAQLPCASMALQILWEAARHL
Put plainly: Inhibition of human mPGES-1 at 10 uM relative to control.

Assay [20] is described as follows: Antioxidant activity assessed as DPPH radical scavenging activity at 1 uM incubated for 30 min by DPPH assay. The format is functional.

Consider `Oc1ccc(CCC2CCC(c3ccc(O)cc3)CO2)cc1` (stereo not given), for which the IC50 was greater than 10 µM in [1] and 1.1 µM in [2]. Also, the Activity in assay [3] was determined as 98 pg/mL; in assay [4] it was 8319 pg/mL; in assay [5], 44 pg/mL; in [6] it was 55 pg/mL; in assay [7], 74786 pg/mL; in [8] it was 5%. Further, the Activity came out at 69% in [9]; 70% in assay [10]; 58 pg/mL in assay [11]; 462 pg/mL in assay [12]; 361 pg/mL in assay [13]; 116% in [14]. In addition, the Activity is 96% in assay [15], 113% in [16] and 119% in assay [17]. Moreover, in [18], the inhibition is greater than 50%. Also, the inhibition result in assay [19] is “inactive”. Besides, the outcome in [20] was inactive.
As for `COc1ccc(C2=C/C(=C/c3ccc(O)cc3O)C(=O)O2)cc1`, the IC50 in [1] was greater than 10 µM; in assay [2] it was 4.8 µM. In addition, the Activity in assay [3] was 62 pg/mL; in [4], 8338 pg/mL; in assay [5] it was 47 pg/mL; in [6], 55 pg/mL; in assay [7], 80565 pg/mL; in assay [8] it was 5%. Besides, the Activity in assay [9] was found to be 93%; in assay [10] it was 89%; in assay [11], 49 pg/mL; in [12] it was 520 pg/mL; in [13] it was 575 pg/mL; in assay [14], 121%. For the same compound, the Activity in assay [15] is 112%; in assay [16], 103%; in assay [17] it was 103%. Also, the inhibition in assay [18] was greater than 50%. In assay [19], the inhibition result was “inactive”. In [20], the outcome was inactive.
